Test results taken from patent US20070049593A1 (priority 2004, published 2007).
Where a name gives a salt, the structure may show the parent alone.

What follows are molecules tested against T1, HCV polymerase (Hepatitis C virus genotype 1b, UniProt P26663) (assay: biochemical).
T1 construct: a region encoding NS5B (J Virol 1991 March, 65(3), 1105-13, 544 amino acids after deletion of 47 amino acids on the C-terminal); 6xHis (C); made in house; host or cells: Escherichia coli
Parameters: species or system HCV BK strain
Outline: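 Recombinant HCV BK-strain NS5B (C-terminal 47 aa deleted, His6-tagged, E. coli), 0.5 μg/ml, run with 5 μg/ml in vitro-transcribed RNA template (polyU/3′X), ATP/GTP/CTP 50 μM, UTP 2 μM plus [3H]UTP, pH 7.5, 25° C, 90 min. TCA-precipitated RNA counted by scintillation; IC50 from activity with vs without compound.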

T1 sequence (P26663 2420-2963): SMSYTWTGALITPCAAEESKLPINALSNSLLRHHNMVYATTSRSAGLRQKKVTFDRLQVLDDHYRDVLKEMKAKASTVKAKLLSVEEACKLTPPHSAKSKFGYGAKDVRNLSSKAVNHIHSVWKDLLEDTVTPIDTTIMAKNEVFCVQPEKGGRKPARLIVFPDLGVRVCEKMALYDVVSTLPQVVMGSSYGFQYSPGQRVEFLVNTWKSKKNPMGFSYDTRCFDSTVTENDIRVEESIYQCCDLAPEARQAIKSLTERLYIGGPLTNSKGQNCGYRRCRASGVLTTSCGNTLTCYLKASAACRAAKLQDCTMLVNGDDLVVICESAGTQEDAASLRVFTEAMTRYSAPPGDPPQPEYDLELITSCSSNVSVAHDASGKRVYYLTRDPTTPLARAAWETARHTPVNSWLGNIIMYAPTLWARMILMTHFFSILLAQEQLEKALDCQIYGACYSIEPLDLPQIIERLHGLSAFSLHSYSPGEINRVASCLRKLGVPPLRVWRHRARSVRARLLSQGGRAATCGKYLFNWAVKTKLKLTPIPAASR

| SMILES | IC50 |
| --- | --- |
| COc1ccc2c(c1)OCCn1c-2c(C2CCCCC2)c2ccc(C(=O)NC(C)(C)c3ccc(CCC(=O)O)cc3)cc21 [Example 2-423, 3-(4-{1-[(12-cyclohexyl-3-methoxy-6,7-dihydro-5-oxa-7a-azadibenzo[a,e]azulene-9-carbonyl)amino]-1-methylethyl}phenyl)propionic acid] | < 100 nM |
| CN1CCC(CCN2CCn3c(c(C4CCCCC4)c4ccc(C(=O)O)cc43)-c3ccc(Cl)cc32)CC1 [Example 1-246, 3-chloro-13-cyclohexyl-5-[2-(1-methylpiperidin-4-yl)ethyl]-6,7-dihydro-5H-benzo[5,6][1,4]diazepino[7,1-a]indole-10-carboxylic acid dihydrochloride] | < 100 nM |
| O=C(O)c1ccc2c(C3CCCCC3)c3n(c2c1)CCOc1c(OCCN2CCOCC2)cccc1-3 [Example 2-462, 12-cyclohexyl-4-[2-(morpholin-4-yl)ethoxy]-6,7-dihydro-5-oxa-7a-azadibenzo[a,e]azulene-9-carboxylic acid monohydrochloride] | < 100 nM |
| COc1ccc2c(c1)OCCn1c-2c(C2CCCCC2)c2ccc(C(=O)NC(C)(C)c3nc4cc(CCC(=O)O)ccc4[nH]3)cc21 [Example 2-412, 3-(2-{1-[(12-cyclohexyl-3-methoxy-6,7-dihydro-5-oxa-7a-azadibenzo[a,e]azulene-9-carbonyl)amino]-1-methylethyl}-1H-benzimidazol-5-yl)propionic acid] | < 100 nM |
| CN(C)C(=O)C1Cn2c(c(C3CCCCC3)c3ccc(C(=O)O)cc32)-c2ccccc2O1 (stereo not shown) [Example 3-4, 12-cyclohexyl-6-dimethylcarbamoyl-6,7-dihydro-5-oxa-7a-azadibenzo[a,e]azulene-9-carboxylic acid] | < 100 nM |
| COC(=O)c1ccc2nc(C(C)(C)NC(=O)c3ccc4c(C5CCCCC5)c5n(c4c3)CCOc3ccccc3-5)[nH]c2c1 [Example 2-196, methyl 2-{1-[(12-cyclohexyl-6,7-dihydro-5-oxa-7a-azadibenzo[a,e]azulene-9-carbonyl)amino]-1-methylethyl}-3H-benzimidazole-5-carboxylate] | < 100 nM |
| O=C(O)c1ccc2c(C3CCCCC3)c3n(c2c1)CCN(CCCN1CCCOCC1)c1cc(Cl)ccc1-3 [Example 1-270, 3-chloro-13-cyclohexyl-5-[3-(1,4-oxazepan-4-yl)propyl]-6,7-dihydro-5H-benzo[5,6][1,4]diazepino[7,1-a]indole-10-carboxylic acid dihydrochloride] | < 100 nM |
| CC(=O)N1CCC(NC(=O)c2ccc3c(C4CCCCC4)c4n(c3c2)CCOc2ccccc2-4)(C(=O)O)CC1 [Example 2-181, 1-acetyl-4-[(12-cyclohexyl-6,7-dihydro-5-oxa-7a-azadibenzo[a,e]azulene-9-carbonyl)amino]piperidine-4-carboxylic acid] | < 100 nM |
| CC1CCN(CCN2CCn3c(c(C4CCCCC4)c4ccc(C(=O)O)cc43)-c3ccc(Cl)cc32)CC1 [Example 1-215, 3-chloro-13-cyclohexyl-5-[2-(4-methylpiperidin-1-yl)ethyl]-6,7-dihydro-5H-benzo[5,6][1,4]diazepino[7,1-a]indole-10-carboxylic acid dihydrochloride] | < 100 nM |
| CCOc1ccc2c(c1)N(C)CCn1c-2c(C2CCCCC2)c2ccc(C(=O)NC3(C(=O)Nc4ccc(Cl)c(/C=C/C(=O)O)c4)CCC3)cc21 [Example 1-618, (E)-3-[2-chloro-5-({1-[(13-cyclohexyl-3-ethoxy-5-methyl-6,7-dihydro-5H-benzo[5,6][1,4]diazepino[7,1-a]indole-10-carbonyl)amino]cyclobutanecarbonyl}amino)phenyl]acrylic acid] | < 100 nM |
| Cc1ccc2c(c1)N(CCN1CCCCCCC1)CCn1c-2c(C2CCCCC2)c2ccc(C(=O)O)cc21 [Example 1-278, 5-[2-(azocan-1-yl)ethyl]-13-cyclohexyl-3-methyl-6,7-dihydro-5H-benzo[5,6][1,4]diazepino[7,1-a]indole-10-carboxylic acid dihydrochloride] | < 100 nM |
| CCN1CCN(C(=O)CN2CCn3c(c(C4CCCCC4)c4ccc(C(=O)NC)cc43)-c3ccccc32)CC1 [Example 1-84, 13-cyclohexyl-5-[2-(4-ethylpiperazin-1-yl)-2-oxoethyl]-N-methyl-6,7-dihydro-5H-benzo[5,6][1,4]diazepino[7,1-a]indole-10-carboxamide] | < 100 nM |
| CCOc1ccc2c(c1)N(C)CCn1c-2c(C2CCCCC2)c2ccc(C(=O)NC3(C(=O)Nc4ccc(C=CC(=O)O)c(Cl)c4)CCC3)cc21 [Example 1-623, (E)-3-[2-chloro-4-({1-[(13-cyclohexyl-3-ethoxy-5-methyl-6,7-dihydro-5H-benzo[5,6][1,4]diazepino[7,1-a]indole-10-carbonyl)amino]cyclobutanecarbonyl}amino)phenyl]acrylic acid] | < 100 nM |
